Measured values as given in patent US11090247B2, “Compositions for protecting the skin from heavy metals and formaldehyde” (FNG RESEARCH CO., LTD., priority 2016, dated 2021).

Legend:
[1] = Removal test of heavy metals of active ingredients (pig skin, ICP-MS): Cu; settings: contaminated pig skin
Protocol: (§1) (1) Preparation of Heavy Metal Contamination Sources and Pig Skin Samples
(§2) A pig was slaughtered, flayed and the bristle was shaved. The pig skin was cut to prepare 5*5 cm size of skin samples respectively.
(§3) The said skin samples were cleanly wiped with wet gauze, and then, added to 50 ml of methanol and extracted by shaking with ultrasonic for 60 min. 50 ml of methanol was further added and mixed. The pig skin samples were removed from the extracted solutions to prepare the test solutions.
(§4) The test solutions were analyzed for heavy metal components using an inductively coupled plasma mass spectrometer (ICP-MS, Xseries™ 2, Thermo Fisher Scientific, UK).

[2] = Removal test of heavy metals of active ingredients (pig skin, ICP-MS): Pb; settings: contaminated pig skin
Protocol: as §1, §2, §3, §4

[3] = Removal test of heavy metals of active ingredients (pig skin, ICP-MS): Cd; settings: contaminated pig skin
Protocol: as §1, §2, §3, §4

[4] = Formaldehyde removing ability test (GC); settings: 2.0% formaldehyde solution; for Area (mAU*min) 30 min: formaldehyde GC area after 30 min; for Area (mAU*min) 30 min / Area (mAU*min) 180 min: 3 molar equivalents, room temperature; for Area (mAU*min) 180 min: formaldehyde GC area after 180 min; for Area (mAU*min) Initial: formaldehyde GC area, initial state, 3 molar equivalents of compound
[5] = system: human skin; experiment: Skin irritation test of active ingredient (patch method, CTFA guidelines); type: in vivo; set-up: key to Degree of irritation: 0–0.1 none, 0.11–0.3 weak, 0.31–0.5 moderate, ≥0.51 strong irritation; settings: 20 people, patch 24 hours; for Test result(number of subject) (+): (+): Apparent reddening than periphery; for Test result(number of subject) (++): (++): More reddened and swollen than periphery; for Test result(number of subject) (±): (±): slightly reddish than the periphery; for Test result(number of subject) (−): (−): No erythema or particularly no symptoms
Protocol: A total of 20 people (10 men and 10 women in their 20 s and 30 s) were tested for skin irritation using the patch method according to the guidelines of CTFA (The Cosmetic, Toiletry & Fragrance Association, Inc. Washington, D.C.).
A filter paper disk was placed in an 8 mm diameter, 10 panels of pin chamber.
After 24 hours, the pin chamber was removed, and skin conditions were visually observed.
[Criteria for Skin Irritation]
(−): No erythema or particularly no symptoms; (±): slightly reddish than the periphery; (+): Apparent reddening than periphery; (++): More reddened and swollen than periphery.
[Grade for Skin Irritation]
Degree of irritation 0-0.1: Grade I (unstimulated);
Degree of irritation 0.11-0.3: Grade II (weakly stimulated);
Degree of irritation 0.31-0.5: Grade III (moderately stimulated);
Degree of irritation 0.51 or more: Grade IV (strongly stimulated)

Structure (SMILES)	Removal of Heavy metals Cu (%) ([1]; 0.1 wt % aqueous solution)	Removal of Heavy metals Cu (%) ([1]; 0.5 wt % aqueous solution)	Removal of Heavy metals Cu (%) ([1]; 1.0 wt % aqueous solution)	Removal of Heavy metals Pb (%) ([2]; 0.1 wt % aqueous solution)	Removal of Heavy metals Pb (%) ([2]; 0.5 wt % aqueous solution)	Removal of Heavy metals Pb (%) ([2]; 1.0 wt % aqueous solution)	Removal of Heavy metals Cd (%) ([3]; 0.1 wt % aqueous solution)	Removal of Heavy metals Cd (%) ([3]; 0.5 wt % aqueous solution)	Removal of Heavy metals Cd (%) ([3]; 1.0 wt % aqueous solution)	Area (mAU*min) 30 min [4] [mAU*min]	Area (mAU*min) 180 min [4] [mAU*min]	Area (mAU*min) Initial [4] [mAU*min]	Degree of irritation ([5]; 0.1 wt %)	Grade ([5]; 0.1 wt %)	Test result(number of subject) (+) ([5]; 0.1 wt %)	Test result(number of subject) (++) ([5]; 0.1 wt %)	Test result(number of subject) (±) ([5]; 0.1 wt %)	Test result(number of subject) (−) ([5]; 0.1 wt %)	Degree of irritation ([5]; 0.5 wt %)	Grade ([5]; 0.5 wt %)	also measured
O=C(O)CN(CCN(CC(=O)O)CC(=O)O)CC(=O)O [1(EDTA), Ethylenediaminetetraacetic acid, reference compound]	86.5	88.6	89.2	84.3	88.3	89.6	82.3	87.3	88.3	–	–	–	–	–	–	–	–	–	–	–	–
C1CNCCNCCNCCN1 [Cyclen, 1,4,7,10-tetraazacyclododecane]	93.1	96.6	97.8	91.7	93.7	94.3	88.6	91.1	91.4	0.181	0	0.305	0	I (Degree of irritation 0-0.1: Grade I (unstimulated))	0	0	0	20	0	I (Degree of irritation 0-0.1: Grade I (unstimulated))	Test result(number of subject) (+) ([5]; 0.5 wt %): 0; Test result(number of subject) (++) ([5]; 0.5 wt %): 0; Test result(number of subject) (±) ([5]; 0.5 wt %): 0; Test result(number of subject) (−) ([5]; 0.5 wt %): 20; Degree of irritation ([5]; 1.0 wt %): 0.15; Grade ([5]; 1.0 wt %): II (Degree of irritation 0.11-0.3: Grade II (weakly stimulated)); Test result(number of subject) (+) ([5]; 1.0 wt %): 1; Test result(number of subject) (++) ([5]; 1.0 wt %): 0; Test result(number of subject) (±) ([5]; 1.0 wt %): 1; Test result(number of subject) (−) ([5]; 1.0 wt %): 18
O=C(O)CN(CCN(CCN(CC(=O)O)CC(=O)O)CC(=O)O)CCN(CC(=O)O)CC(=O)O [Embodiment 1, 3,6,9,12-tetrakis(carboxymethyl)-3,6,9,12-tetraazatetradecanedioic acid]	95.2	97.3	97.5	91.1	92.0	92.1	91.0	93.0	94.1	0.170	0	0.305	0	I (Degree of irritation 0-0.1: Grade I (unstimulated))	0	0	0	20	0.05	I (Degree of irritation 0-0.1: Grade I (unstimulated))	Test result(number of subject) (+) ([5]; 0.5 wt %): 0; Test result(number of subject) (++) ([5]; 0.5 wt %): 0; Test result(number of subject) (±) ([5]; 0.5 wt %): 1; Test result(number of subject) (−) ([5]; 0.5 wt %): 19; Degree of irritation ([5]; 1.0 wt %): 0.20; Grade ([5]; 1.0 wt %): II (Degree of irritation 0.11-0.3: Grade II (weakly stimulated)); Test result(number of subject) (+) ([5]; 1.0 wt %): 0; Test result(number of subject) (++) ([5]; 1.0 wt %): 0; Test result(number of subject) (±) ([5]; 1.0 wt %): 4; Test result(number of subject) (−) ([5]; 1.0 wt %): 16
O=C(O)c1ccc(N(CCN(CCN(c2ccc(C(=O)O)cc2)c2ccc(C(=O)O)cc2)c2ccc(C(=O)O)cc2)CCN(c2ccc(C(=O)O)cc2)c2ccc(C(=O)O)cc2)cc1 [Embodiment 2, 4,4′,4″,4′″-(((ethane-1,2-diylbis((4-carboxyphenyl)azanediyl))bis(ethane-2,1-diyl))bis(azanetriyl))tetrabenzoic acid]	93.5	95.8	96.9	86.4	88.6	89.0	87.3	89.7	90.5	0.168	0	0.305	0	I (Degree of irritation 0-0.1: Grade I (unstimulated))	0	0	0	20	0	I (Degree of irritation 0-0.1: Grade I (unstimulated))	Test result(number of subject) (+) ([5]; 0.5 wt %): 0; Test result(number of subject) (++) ([5]; 0.5 wt %): 0; Test result(number of subject) (±) ([5]; 0.5 wt %): 0; Test result(number of subject) (−) ([5]; 0.5 wt %): 20; Degree of irritation ([5]; 1.0 wt %): 0.05; Grade ([5]; 1.0 wt %): I (Degree of irritation 0-0.1: Grade I (unstimulated)); Test result(number of subject) (+) ([5]; 1.0 wt %): 0; Test result(number of subject) (++) ([5]; 1.0 wt %): 0; Test result(number of subject) (±) ([5]; 1.0 wt %): 1; Test result(number of subject) (−) ([5]; 1.0 wt %): 19
O=C(O)c1ccc(N(CCN(CCN(c2ccc(C(=O)O)o2)c2ccc(C(=O)O)o2)c2ccc(C(=O)O)o2)CCN(c2ccc(C(=O)O)o2)c2ccc(C(=O)O)o2)o1 [Embodiment 4, 5,5′,5″,5′″-(((ethane-1,2-diylbis((5-carboxyfuran-2-yl)azanediyl))bis(ethane-2,1-diyl))bis(azanetriyl))tetrakis(furan-2-carboxylic acid)]	92.5	96.2	97.2	86.2	89.7	90.8	87.7	90.6	91.8	0.173	0	0.305	0	I (Degree of irritation 0-0.1: Grade I (unstimulated))	0	0	0	20	0	I (Degree of irritation 0-0.1: Grade I (unstimulated))	Test result(number of subject) (+) ([5]; 0.5 wt %): 0; Test result(number of subject) (++) ([5]; 0.5 wt %): 0; Test result(number of subject) (±) ([5]; 0.5 wt %): 0; Test result(number of subject) (−) ([5]; 0.5 wt %): 20; Degree of irritation ([5]; 1.0 wt %): 0.05; Grade ([5]; 1.0 wt %): I (Degree of irritation 0-0.1: Grade I (unstimulated)); Test result(number of subject) (+) ([5]; 1.0 wt %): 0; Test result(number of subject) (++) ([5]; 1.0 wt %): 0; Test result(number of subject) (±) ([5]; 1.0 wt %): 1; Test result(number of subject) (−) ([5]; 1.0 wt %): 19
